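Assay format: 96-well plates, 48-hour exposure. TGI marks complete inhibition of growth.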
Legend:
Experiment in all cases: NCI-60 cell line screen, 48 h
[1] = tested on: 786-0 renal
[2] = tested on: A498 renal
[3] = tested on: A549 NSCLC
[4] = tested on: ACHN renal
[5] = tested on: BT-549 breast
[6] = tested on: CAKI-1 renal
[7] = tested on: CCRF-CEM leukemia
[8] = tested on: COLO 205 colon
[9] = tested on: DU-145 prostate
[10] = tested on: EKVX NSCLC
[11] = tested on: HCC-2998 colon
[12] = tested on: HCT-116 colon
[13] = tested on: HCT-15 colon
[14] = tested on: HL-60(TB) leukemia
[15] = tested on: HOP-62 NSCLC
[16] = tested on: HOP-92 NSCLC
[17] = tested on: HS 578T breast
[18] = tested on: HT29 colon
[19] = tested on: IGROV1 ovarian
[20] = tested on: K-562 leukemia
[21] = tested on: KM12 colon
[22] = tested on: LOX IMVI melanoma
[23] = tested on: M14 melanoma
[24] = tested on: MALME-3M melanoma
[25] = tested on: MCF7 breast
[26] = tested on: MDA-MB-435
[27] = tested on: MDA-N
[28] = tested on: MOLT-4 leukemia
[29] = tested on: NCI-H226 lung
[30] = tested on: NCI-H23 lung
[31] = tested on: NCI-H460 lung
[32] = tested on: NCI-H522 lung
[33] = tested on: NCI/ADR-RES ovarian
[34] = tested on: OVCAR-3 ovarian
[35] = tested on: OVCAR-4 ovarian
[36] = tested on: OVCAR-5 ovarian
[37] = tested on: OVCAR-8 ovarian
[38] = tested on: PC-3 prostate
[39] = tested on: RPMI-8226 leukemia
[40] = tested on: RXF 393 renal
[41] = tested on: SF-268 CNS
[42] = tested on: SF-295 CNS
[43] = tested on: SF-539 CNS
[44] = tested on: SK-MEL-2 melanoma
[45] = tested on: SK-MEL-28 melanoma
[46] = tested on: SK-MEL-5 melanoma
[47] = tested on: SK-OV-3 ovarian
[48] = tested on: SN12C renal
[49] = tested on: SNB-75 CNS
[50] = tested on: SR leukemia
[51] = tested on: SW-620 colon
[52] = tested on: T-47D breast
[53] = tested on: UACC-257 melanoma
[54] = tested on: UACC-62 melanoma
[55] = tested on: UO-31 renal
[56] = tested on: MDA-MB-231 breast
[57] = tested on: U251 CNS

## O=C(Nc1c(Cl)cccc1Cl)c1c(Cl)c(Cl)c(Cl)c(Cl)c1-c1nc2ccccc2[nH]1
[1]
  TGI: > 100 µM
[2]
  TGI: 54.6 µM
[3]
  TGI: > 100 µM
[4]
  TGI: > 100 µM
[5]
  TGI: > 100 µM
[6]
  TGI: > 100 µM
[7]
  TGI: > 100 µM
[8]
  TGI: > 100 µM
[9]
  TGI: > 100 µM
[10]
  TGI: > 100 µM
[11]
  TGI: > 100 µM
[12]
  TGI: > 100 µM
[13]
  TGI: > 100 µM
[14]
  TGI: > 100 µM
[15]
  TGI: > 100 µM
[16]
  TGI: > 100 µM
[17]
  TGI: > 100 µM
[18]
  TGI: > 100 µM
[19]
  TGI: > 100 µM
[20]
  TGI: > 100 µM
[21]
  TGI: > 100 µM
[22]
  TGI: > 100 µM
[23]
  TGI: > 100 µM
[24]
  TGI: > 100 µM
[25]
  TGI: > 100 µM
[26]
  TGI: > 100 µM
[27]
  TGI: > 100 µM
[28]
  TGI: > 100 µM
[29]
  TGI: > 100 µM
[30]
  TGI: > 100 µM
[31]
  TGI: > 100 µM
[32]
  TGI: > 100 µM
[33]
  TGI: > 100 µM
[34]
  TGI: > 100 µM
[35]
  TGI: > 100 µM
[36]
  TGI: > 100 µM
[37]
  TGI: > 100 µM
[38]
  TGI: > 100 µM
[39]
  TGI: > 100 µM
[40]
  TGI: 45.2 µM
[41]
  TGI: > 100 µM
[42]
  TGI: > 100 µM
[43]
  TGI: > 100 µM
[44]
  TGI: > 100 µM
[45]
  TGI: > 100 µM
[46]
  TGI: > 100 µM
[47]
  TGI: > 100 µM
[48]
  TGI: > 100 µM
[49]
  TGI: 84.9 µM
[50]
  TGI: > 100 µM
[51]
  TGI: > 100 µM
[52]
  TGI: > 100 µM
[53]
  TGI: > 100 µM
[54]
  TGI: > 100 µM
[55]
  TGI: > 100 µM

## CCC1=C(C)C(=O)N/C1=C\c1[nH]c(C)c([C@H](C)CCN)c1C
[1]
  TGI: 28.9 µM
[2]
  TGI: 33.4 µM
[3]
  TGI: 34.3 µM
[4]
  TGI: 32.9 µM
[5]
  TGI: 29.9 µM
[6]
  TGI: 32.3 µM
[7]
  TGI: > 100 µM
[8]
  TGI: 31.1 µM
[9]
  TGI: 32.5 µM
[10]
  TGI: 28.1 µM
[12]
  TGI: 27.6 µM
[13]
  TGI: 28.6 µM
[14]
  TGI: 42.4 µM
[15]
  TGI: 32.7 µM
[16]
  TGI: 28.6 µM
[17]
  TGI: 28.6 µM
[18]
  TGI: 29.6 µM
[19]
  TGI: 32 µM
[20]
  TGI: > 100 µM
[21]
  TGI: 30.7 µM
[22]
  TGI: 28.7 µM
[23]
  TGI: 30.4 µM
[24]
  TGI: 32.8 µM
[25]
  TGI: 32.9 µM
[56]
  TGI: 32.7 µM
[26]
  TGI: 29.6 µM
[27]
  TGI: 29.1 µM
[28]
  TGI: > 100 µM
[29]
  TGI: 31.8 µM
[30]
  TGI: 26.8 µM
[31]
  TGI: 35.5 µM
[32]
  TGI: 24.4 µM
[33]
  TGI: 49 µM
[34]
  TGI: 30.1 µM
[35]
  TGI: 26.7 µM
[36]
  TGI: 31.7 µM
[37]
  TGI: 28.8 µM
[39]
  TGI: > 100 µM
[41]
  TGI: 30.4 µM
[42]
  TGI: 31.5 µM
[43]
  TGI: 15.5 µM
[44]
  TGI: 35.1 µM
[45]
  TGI: 32.5 µM
[46]
  TGI: 31.4 µM
[47]
  TGI: 31.5 µM
[48]
  TGI: 29.8 µM
[49]
  TGI: 22.6 µM
[50]
  TGI: > 100 µM
[51]
  TGI: 35.1 µM
[52]
  TGI: 26.2 µM
[57]
  TGI: 28.9 µM
[54]
  TGI: 31.5 µM
[55]
  TGI: 29.2 µM

— PubChem BioAssay (NCI)
